From ChEMBL document CHEMBL1201862, “PubChem BioAssay data set” (2004)
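Results reflect a 48-hour exposure of cells in 96-well plates to compound at five concentrations. At the GI50, growth is halved.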 Active and inactive are the calls of the source. Cut-off read from the data, not from the text of the source: active = GI50 up to about 1.1 µM and inactive = higher.

Assays:
Test in all cases: NCI tumour cell line growth inhibition, 48 h
[1] = test system: OVCAR-5
[2] = test system: SF-539
[3] = test system: LXFL 529
[4] = test system: COLO 205
[5] = test system: LOX IMVI
[6] = test system: MOLT-4
[7] = test system: NCI-H23
[8] = test system: A498
[9] = test system: UACC-62
[10] = test system: M14
[11] = test system: A549
[12] = test system: HCC 2998
[13] = test system: SW-620
[14] = test system: HT-29
[15] = test system: RXF 631
[16] = test system: HOP-62
[17] = test system: SF-268
[18] = test system: SK-MEL-28
[19] = test system: HCT-15
[20] = test system: NCI-H522
[21] = test system: OVCAR-3
[22] = test system: K562
[23] = test system: HOP-18
[24] = test system: XF498
[25] = test system: IGROV-1
[26] = test system: ACHN
[27] = test system: CCRF-CEM
[28] = test system: SN12C
[29] = test system: SK-OV-3
[30] = test system: EKVX
[31] = test system: SF-295
[32] = test system: SR
[33] = test system: HL-60
[34] = test system: KM-20L2
[35] = test system: SK-MEL-5
[36] = test system: DMS-114
[37] = test system: 786-0
[38] = test system: KM12
[39] = test system: DMS-273
[40] = test system: RPMI-8226
[41] = test system: SK-MEL-2
[42] = test system: SNB-78
[43] = test system: SNB-19
[44] = test system: TK-10
[45] = test system: UACC-257
[46] = test system: RXF 393
[47] = test system: OVCAR-8
[48] = test system: SNB-75
[49] = test system: NCI-H226
[50] = test system: UO-31
[51] = test system: NCI-H460
[52] = test system: HCT-116
[53] = test system: U-251
[54] = test system: CAKI-1
[55] = test system: HOP-92
[56] = test system: M19-MEL
[57] = test system: Malme-3M
[58] = test system: OVCAR-4
[59] = test system: DLD-1

SMILES: CCC/C(=N/NC(=O)C(N)=O)C(CC)C(=O)CCC(=O)N(Cc1ccccc1)Cc1ccccc1 (stereo not drawn)
- GI50 [1]: > 100 µM (inactive)
- GI50 [2]: > 100 µM (inactive)
- GI50 [3]: > 100 µM (inactive)
- GI50 [4]: > 100 µM (inactive)
- GI50 [5]: > 100 µM (inactive)
- GI50 [6]: > 100 µM (inactive)
- GI50 [7]: > 100 µM (inactive)
- GI50 [8]: > 100 µM (inactive)
- GI50 [9]: > 100 µM (inactive)
- GI50 [10]: > 100 µM (inactive)
- GI50 [11]: > 100 µM (inactive)
- GI50 [12]: > 100 µM (inactive)
- GI50 [13]: > 100 µM (inactive)
- GI50 [14]: > 100 µM (inactive)
- GI50 [15]: > 100 µM (inactive)
- GI50 [16]: > 100 µM (inactive)
- GI50 [17]: > 100 µM (inactive)
- GI50 [18]: > 100 µM (inactive)
- GI50 [19]: > 100 µM
- GI50 [20]: > 100 µM (inactive)
- GI50 [21]: > 100 µM (inactive)
- GI50 [22]: > 100 µM (inactive)
- GI50 [23]: > 100 µM (inactive)
- GI50 [24]: > 100 µM (inactive)
- GI50 [25]: > 100 µM (inactive)
- GI50 [26]: > 100 µM (inactive)
- GI50 [27]: > 100 µM (inactive)
- GI50 [28]: > 100 µM (inactive)
- GI50 [29]: > 100 µM (inactive)
- GI50 [30]: > 100 µM (inactive)
- GI50 [31]: > 100 µM (inactive)
- GI50 [32]: > 100 µM (inactive)
- GI50 [33]: > 100 µM (inactive)
- GI50 [34]: > 100 µM (inactive)
- GI50 [35]: > 100 µM (inactive)
- GI50 [36]: > 100 µM (inactive)
- GI50 [37]: > 100 µM (inactive)
- GI50 [38]: > 100 µM (inactive)
- GI50 [39]: > 100 µM (inactive)
- GI50 [40]: > 100 µM (inactive)
- GI50 [41]: > 100 µM (inactive)
- GI50 [42]: > 100 µM (inactive)
- GI50 [43]: > 100 µM (inactive)
- GI50 [44]: > 100 µM (inactive)
- GI50 [45]: > 100 µM (inactive)
- GI50 [46]: > 100 µM (inactive)
- GI50 [47]: > 100 µM (inactive)
- GI50 [48]: > 100 µM (inactive)
- GI50 [49]: > 100 µM (inactive)
- GI50 [50]: > 100 µM (inactive)
- GI50 [51]: > 100 µM (inactive)
- GI50 [52]: > 100 µM (inactive)
- GI50 [53]: > 100 µM (inactive)
- GI50 [54]: > 100 µM (inactive)
- GI50 [55]: > 100 µM (inactive)
- GI50 [56]: > 100 µM (inactive)
- GI50 [57]: > 100 µM (inactive)

SMILES: CC(C)(C)C(=O)O[C@@H]1COC2C(O)COC21 (stereo partly drawn)
- GI50 [1]: > 100 µM (inactive)
- GI50 [2]: > 100 µM (inactive)
- GI50 [3]: > 100 µM (inactive)
- GI50 [4]: > 100 µM (inactive)
- GI50 [5]: > 100 µM (inactive)
- GI50 [6]: 19.7 µM (inactive)
- GI50 [7]: > 100 µM (inactive)
- GI50 [9]: > 100 µM (inactive)
- GI50 [10]: > 100 µM (inactive)
- GI50 [11]: > 100 µM (inactive)
- GI50 [12]: > 100 µM (inactive)
- GI50 [13]: > 100 µM (inactive)
- GI50 [14]: > 100 µM (inactive)
- GI50 [15]: > 100 µM (inactive)
- GI50 [16]: > 100 µM (inactive)
- GI50 [17]: > 100 µM (inactive)
- GI50 [18]: > 100 µM (inactive)
- GI50 [20]: > 100 µM (inactive)
- GI50 [21]: > 100 µM (inactive)
- GI50 [58]: > 100 µM (inactive)
- GI50 [22]: > 100 µM (inactive)
- GI50 [23]: > 100 µM (inactive)
- GI50 [24]: > 100 µM (inactive)
- GI50 [25]: > 100 µM (inactive)
- GI50 [26]: > 100 µM (inactive)
- GI50 [27]: > 100 µM (inactive)
- GI50 [28]: > 100 µM (inactive)
- GI50 [31]: > 100 µM (inactive)
- GI50 [32]: > 100 µM (inactive)
- GI50 [59]: > 100 µM (inactive)
- GI50 [33]: > 100 µM (inactive)
- GI50 [35]: > 100 µM (inactive)
- GI50 [36]: > 100 µM (inactive)
- GI50 [37]: > 100 µM (inactive)
- GI50 [38]: > 100 µM (inactive)
- GI50 [39]: > 100 µM (inactive)
- GI50 [42]: > 100 µM (inactive)
- GI50 [43]: > 100 µM (inactive)
- GI50 [44]: > 100 µM (inactive)
- GI50 [45]: > 100 µM (inactive)
- GI50 [46]: > 100 µM (inactive)
- GI50 [47]: > 100 µM (inactive)
- GI50 [48]: > 100 µM (inactive)
- GI50 [50]: > 100 µM (inactive)
- GI50 [51]: > 100 µM (inactive)
- GI50 [52]: > 100 µM (inactive)
- GI50 [53]: > 100 µM (inactive)
- GI50 [54]: > 100 µM (inactive)
- GI50 [55]: > 100 µM (inactive)
- GI50 [56]: > 100 µM (inactive)
- GI50 [57]: > 100 µM (inactive)
